Source: patent US9688678B2, “Oxindole compounds carrying a nitrogen-bound spiro substituent and use thereof for treating vasopressin-related diseases” (AbbVie Deutschland GmbH & Co. KG, priority 2014, dated 2017)

What was measured:
[1] = biological target: human vasopressin V1b receptor (Homo sapiens (Human), UniProt P47901); test: Vasopressin V1b receptor binding assay; settings: membranes from CHO-K1 cells, displacement of 3H-AVP
Experimental: The test substances were dissolved in a concentration of 5 mM in 100% DMSO and further diluted to 5×10^−4 M to 5×10^−9 M. These serial DMSO predilutions were diluted 1:10 with assay buffer. The substance concentration was further diluted 1:5 in the assay mixture resulting in 2% DMSO in the mixture. All dilutions were performed in a Biomek NX automation workstation (Beckman)
The membrane pellet was again homogenized and centrifuged as described and subsequently taken up in 50 mM Tris-HCl, pH 7.4, homogenized and stored in aliquots frozen in liquid nitrogen at −190° C.
(§1) The incubation buffer was: 50 mM Tris, 10 mM MgCl2, 0.1% BSA, pH 7.4.
All determinations were carried out as duplicate determinations. […] The liquid scintillation measurement took place in a Microbeta TriLux 12 (Wallac). Analysis:
(§2) The binding parameters were calculated by nonlinear regression in SAS.

[2] = biological target: human vasopressin V1a receptor (Homo sapiens (Human), UniProt P37288); test: Vasopressin V1a receptor binding assay; settings: selectivity quotient, human V1a vs human V1b receptor
human vasopressin V1a receptor, sequence (P37288 whole entry): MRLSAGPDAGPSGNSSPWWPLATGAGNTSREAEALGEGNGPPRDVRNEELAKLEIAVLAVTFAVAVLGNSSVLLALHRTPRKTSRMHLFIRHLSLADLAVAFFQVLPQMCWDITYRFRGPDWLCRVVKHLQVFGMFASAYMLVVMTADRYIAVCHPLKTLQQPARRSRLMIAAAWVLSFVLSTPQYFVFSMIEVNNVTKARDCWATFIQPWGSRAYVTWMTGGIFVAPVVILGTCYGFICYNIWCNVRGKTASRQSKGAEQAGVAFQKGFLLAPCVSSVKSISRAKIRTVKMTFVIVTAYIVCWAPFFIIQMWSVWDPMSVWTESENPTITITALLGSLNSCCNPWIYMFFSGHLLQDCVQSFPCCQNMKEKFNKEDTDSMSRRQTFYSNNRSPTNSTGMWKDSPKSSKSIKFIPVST
Experimental: The test substances were dissolved in a concentration of 5 mM M in DMSO. Further dilution of these DMSO solutions took place as described for V1b.
The membrane pellet was again homogenized in a High-Pressure-Homogenizer, Polytec 50K at 1500 PSI (Heinemann, Germany) and subsequently taken up in 50 mM Tris-HCl, pH 7.4, homogenized and stored in aliquots frozen in liquid nitrogen at −190° C.
as §1
Duplicate determinations were carried out.
After incubation (60 minutes at room temperature), the samples were processed as described for V1b.
as §2

human vasopressin V1b receptor, sequence (P47901 whole entry): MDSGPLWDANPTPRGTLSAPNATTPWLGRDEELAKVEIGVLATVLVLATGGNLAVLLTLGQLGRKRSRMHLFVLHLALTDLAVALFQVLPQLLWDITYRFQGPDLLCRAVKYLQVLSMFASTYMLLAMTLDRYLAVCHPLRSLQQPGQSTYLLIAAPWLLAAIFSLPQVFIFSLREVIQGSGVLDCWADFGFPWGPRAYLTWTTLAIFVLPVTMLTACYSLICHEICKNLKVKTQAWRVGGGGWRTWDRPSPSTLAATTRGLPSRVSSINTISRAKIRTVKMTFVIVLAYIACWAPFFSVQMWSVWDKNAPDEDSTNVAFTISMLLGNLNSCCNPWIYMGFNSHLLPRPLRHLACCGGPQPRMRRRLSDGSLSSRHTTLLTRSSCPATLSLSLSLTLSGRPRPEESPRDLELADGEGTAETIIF

SMILES	Ki [1]	Ki(h-V1a)/ Ki(h-V1b) [2]
CCOc1ccc(OC)cc1[C@]1(N2CC3(CN(C4CCN(C)CC4)C3)C2)C(=O)N(S(=O)(=O)c2ccccn2)c2ccc(C#N)cc21 [Example 33, (3S)-3-(2-ethoxy-5-methoxy-phenyl)-3-[2-(1-methyl-4-piperidyl)-2,6-diazaspiro[3.3]heptan-6-yl]-2-oxo-1-(2-pyridylsulfonyl)indoline-5-carbonitrile]	1 to 10 nM	+++ (>75)
CCOc1ccc(OC)cc1[C@]1(N2CC3(CN(C4CCN(C)CC4)C3)C2)C(=O)N(S(=O)(=O)c2ccc(Cl)cn2)c2ccc(C#N)cc21 [Example 34, (3S)-1-[(5-chloro-2-pyridyl)sulfonyl]-3-(2-ethoxy-5-methoxy-phenyl)-3-[2-(1-methyl-4-piperidyl)-2,6-diazaspiro[3.3]heptan-6-yl]-2-oxo-indoline-5-carbonitrile]	< 1 nM	+++ (>75)
